Like-named read-outs stand apart in the source and are kept apart here.

What all share (test): TR-FRET kinase assay, GFP-ATF2 ([…]-96) phosphorylation
Assay type in all cases: biochemical
Background: Time-resolved FRET reads energy transfer from a long-lived donor to a nearby acceptor.

Experiment [1] deals with T1, MAPK14/p38α (Homo sapiens, UniProt Q16539).
The target in experiment [2] is T2, p38δ (Homo sapiens, UniProt O15264).
T2 construct: gene MAPK13
T2 sequence (O15264 1-365): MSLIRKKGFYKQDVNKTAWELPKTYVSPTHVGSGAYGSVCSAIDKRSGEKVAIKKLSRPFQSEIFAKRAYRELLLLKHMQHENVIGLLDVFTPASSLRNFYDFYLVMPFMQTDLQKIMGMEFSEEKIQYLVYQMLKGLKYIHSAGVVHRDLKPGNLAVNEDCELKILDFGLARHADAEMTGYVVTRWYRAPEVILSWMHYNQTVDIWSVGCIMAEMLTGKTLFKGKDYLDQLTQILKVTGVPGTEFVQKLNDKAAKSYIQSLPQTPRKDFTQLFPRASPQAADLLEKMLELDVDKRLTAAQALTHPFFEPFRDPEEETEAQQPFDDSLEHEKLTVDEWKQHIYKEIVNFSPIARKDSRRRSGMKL

For experiment [3], the target named is T3, p38γ (Homo sapiens, UniProt P53778).
T3 construct: gene MAPK12
T3 sequence (P53778 1-367): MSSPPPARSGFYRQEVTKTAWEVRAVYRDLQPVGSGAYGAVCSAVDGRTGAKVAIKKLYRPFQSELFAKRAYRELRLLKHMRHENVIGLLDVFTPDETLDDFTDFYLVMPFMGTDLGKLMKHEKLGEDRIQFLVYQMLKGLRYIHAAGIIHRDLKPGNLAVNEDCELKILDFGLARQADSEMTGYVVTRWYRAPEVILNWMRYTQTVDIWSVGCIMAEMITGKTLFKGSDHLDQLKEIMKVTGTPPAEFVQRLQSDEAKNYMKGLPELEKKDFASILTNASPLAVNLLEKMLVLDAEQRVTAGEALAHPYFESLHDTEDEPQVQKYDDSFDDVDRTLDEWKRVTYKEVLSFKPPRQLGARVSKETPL

Experiment [4] concerns the target T4, p38β (Homo sapiens, UniProt Q15759).
T4 construct: gene MAPK11

For experiment [5], the target named is T1, MAPK14/p38α. Particulars: 90 μM ATP, 0.4 μM GFP-ATF2, 10 mM MgCl2, pH 7.5, RT, 15 min preincubation; unreliable (the two tables disagree).

T1 sequence (Q16539 2-360): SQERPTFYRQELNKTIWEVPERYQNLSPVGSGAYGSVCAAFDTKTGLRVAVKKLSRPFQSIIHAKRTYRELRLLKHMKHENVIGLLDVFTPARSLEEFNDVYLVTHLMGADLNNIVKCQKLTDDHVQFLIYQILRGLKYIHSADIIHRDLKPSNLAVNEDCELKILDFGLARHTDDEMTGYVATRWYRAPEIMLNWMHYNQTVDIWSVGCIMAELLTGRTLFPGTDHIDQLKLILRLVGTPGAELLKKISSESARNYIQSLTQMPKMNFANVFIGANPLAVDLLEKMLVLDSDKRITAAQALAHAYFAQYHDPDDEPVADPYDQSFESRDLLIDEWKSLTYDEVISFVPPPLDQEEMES
T4 sequence (Q15759 whole entry): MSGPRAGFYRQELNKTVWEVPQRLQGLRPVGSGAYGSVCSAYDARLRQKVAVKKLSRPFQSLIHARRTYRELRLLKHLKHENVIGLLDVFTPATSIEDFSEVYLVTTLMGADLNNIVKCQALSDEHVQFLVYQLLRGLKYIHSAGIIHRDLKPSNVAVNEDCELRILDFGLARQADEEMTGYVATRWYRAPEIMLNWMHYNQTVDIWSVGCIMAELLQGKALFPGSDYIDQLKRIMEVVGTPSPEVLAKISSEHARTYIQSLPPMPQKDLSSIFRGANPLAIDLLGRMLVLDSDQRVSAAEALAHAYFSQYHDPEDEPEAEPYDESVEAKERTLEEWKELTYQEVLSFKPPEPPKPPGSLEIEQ

On to `CC(C)(C)c1cc(NC(=O)NCc2ccccc2Oc2ccc3nc(N)sc3c2)n(-c2ccc([N+](=O)[O-])cc2)n1` [8a, 1-(2-((2-Aminobenzo[d]thiazol-6-yl)oxy)benzyl)-3-(3-(tert-butyl)-1-(4-nitrophenyl)-1H-pyrazol-5-yl)urea], for which 2.878 ± 0.01 nM corresponded to half-maximal inhibition in experiment [1] (IC50).

With `Cc1ccc(-n2nc(C(C)(C)C)cc2NC(=O)NCc2cc(F)ccc2Oc2ccc3nc(N)sc3c2)cc1` [8b, 1-(2-((2-Aminobenzo[d]thiazol-6-yl)oxy)-5-fluorobenzyl)-3-(3-(tert-butyl)-1-(p-tolyl)-1H-pyrazol-5-yl)urea], half-maximal inhibition in experiment [1] (IC50) required 1.11 ± 0.2 nM. On the same count and under the same terms, the figure for `COC(=O)Nc1nc2ccc(Oc3ccccc3CNC(=O)Nc3cc(C(C)(C)C)nn3-c3ccc([N+](=O)[O-])cc3)cc2s1` [9a, Methyl(6-(2-((3-(3-(tert-butyl)-1-(4-nitrophenyl)-1H-pyrazol-5-yl)ureido)methyl)phenoxy)benzo[d]thiazol-2-yl)carbamate] is 1.31 ± 0.09 nM; for `Cc1ccc(-n2nc(C(C)(C)C)cc2NC(=O)NCc2ccccc2Oc2ccc3nc(NC(=O)NC(C)(C)C)sc3c2)cc1` [9b, 1-(3-(Tert-butyl)-1-(p-tolyl)-1H-pyrazol-5-yl)-3-(2-((2-(3-(tert-butyl)ureido)benzo[d]thiazol-6-yl)oxy)benzyl)urea] it is 6.16 ± 0.07 nM.

With `COC(=O)Nc1nc2ccc(Oc3ccccc3CNC(=O)Nc3cc(C(C)(C)C)nn3-c3ccc(C)cc3)cc2s1` [9c, Methyl(6-(2-((3-(3-(tert-butyl)-1-(p-tolyl)-1H-pyrazol-5-yl)ureido)methyl)phenoxy)benzo[d]thiazol-2-yl)carbamate], the IC50 (as a rule, the concentration that inhibits the measured activity by half) in experiment [1] stood at 1.02 ± 0.09 nM. For `CCNC(=O)Nc1nc2ccc(Oc3ccccc3CNC(=O)Nc3cc(C(C)(C)C)nn3-c3ccc(C)cc3)cc2s1` [9d, 1-(3-(Tert-butyl)-1-(p-tolyl)-1H-pyrazol-5-yl)-3-(2-((2-(3-ethylureido)benzo[d]thiazol-6-yl)oxy)benzyl)urea], the IC50 in experiment [2] was 231 ± 7.15 nM; in experiment [1], 1.5 ± 0.24 nM; in experiment [3], 191 ± 7.2 nM; in experiment [4] it was 17.5 ± 1.25 nM.

On to `Cc1ccc(-n2nc(C(C)(C)C)cc2NC(=O)NCc2ccccc2Oc2ccc3nc(NC(=O)NCCCl)sc3c2)cc1` [9e, 1-(3-(Tert-butyl)-1-(p-tolyl)-1H-pyrazol-5-yl)-3-(2-((2-(3-(2-chloroethyl)ureido)benzo[d]thiazol-6-yl)oxy)benzyl)urea], for which, in experiment [1] (read-out: p38α IC50 (nM) ^a), the half-inhibitory concentration (IC50) came out at 3.29 ± 0.25 nM. As to `Cc1ccc(-n2nc(C(C)(C)C)cc2NC(=O)NCc2ccccc2Oc2ccc3nc(NC(=O)NC4CCCCC4)sc3c2)cc1` [9f, 1-(3-(Tert-butyl)-1-(p-tolyl)-1H-pyrazol-5-yl)-3-(2-((2-(3-cyclohexylureido)benzo[d]thiazol-6-yl)oxy)benzyl)urea], in experiment [1], the IC50 worked out at 4.499 ± 0.04 nM.

Take `CCNC(=O)Nc1nc2ccc(Oc3ccc(F)cc3CNC(=O)Nc3cc(C(C)(C)C)nn3-c3ccc(C)cc3)cc2s1` [9g, 1-(3-(Tert-butyl)-1-(p-tolyl)-1H-pyrazol-5-yl)-3-(2-((2-(3-ethylureido)benzo[d]thiazol-6-yl)oxy)-5-fluorobenzyl)urea]: the IC50 in experiment [2] was determined as 948.4 ± 8.35 nM; in experiment [3], 424 ± 5.75 nM; in experiment [4], 20.1 ± 1.4 nM. Besides, the “p38α IC50 (nM) ^a” value in experiment [5] is given as 0.844 ± 1.04 nM. Turning to `Cc1ccc(-n2nc(C(C)(C)C)cc2NC(=O)NCc2cc(F)ccc2Oc2ccc3nc(NC(=O)NC4CCCCC4)sc3c2)cc1` [9h, 1-(3-(Tert-butyl)-1-(p-tolyl)-1H-pyrazol-5-yl)-3-(2-((2-(3-cyclohexylureido)benzo[d]thiazol-6-yl)oxy)-5-fluorobenzyl)urea], the IC50 in experiment [1] was found to be 12.4 ± 0.18 nM. Same read-out and setting: the figure for `Cc1ccc(-n2nc(C(C)(C)C)cc2NC(=O)NCc2cc(F)ccc2Oc2ccc3nc(NC(=O)NC(C)(C)C)sc3c2)cc1` [9i, 1-(3-(Tert-butyl)-1-(p-tolyl)-1H-pyrazol-5-yl)-3-(2-((2-(3-(tert-butyl)ureido)benzo[d]thiazol-6-yl)oxy)-5-fluorobenzyl)urea] is 7.54 ± 1.99 nM; for `COC(=O)Nc1nc2ccc(Oc3ccc(F)cc3CNC(=O)Nc3cc(C(C)(C)C)nn3-c3ccc(C)cc3)cc2s1` [9j, Methyl(6-(2-((3-(3-(tert-butyl)-1-(p-tolyl)-1H-pyrazol-5-yl)ureido)methyl)-4-fluorophenoxy)benzo[d]thiazol-2-yl)carbamate] it is 4.28 ± 1.14 nM.
